From ChEMBL document CHEMBL1955780, “In silico scaffold evaluation and solid phase approach to identify new gelatinase inhibitors” (Bioorg Med Chem, 2012)

Assays:
[1] = biological target: 72 kDa type IV collagenase (Homo sapiens, UniProt P08253); assay: Inhibition of full length MMP2 using Mca-Pro-Leu-Gly-Leu-Dpa-Ala-Arg-NH2 as substrate preincubated for 1 hr prior substrate addition measured after 3 hrs by spectrofluorimetry
[2] = biological target: Matrix metalloproteinase-9 (Homo sapiens, UniProt P14780); assay: Inhibition of MMP9 catalytic domain using Mca-Pro-Leu-Gly-Leu-Dpa-Ala-Arg-NH2 as substrate preincubated for 1 hr prior substrate addition measured after 3 hrs by spectrofluorimetry
Stromelysin-1 = Stromelysin-1 (Homo sapiens, UniProt P08254); assay: Inhibition of MMP3 catalytic domain using Mca-Pro-Leu-Gly-Leu-Dpa-Ala-Arg-NH2 as substrate preincubated for 1 hr prior substrate addition measured after 3 hrs by spectrofluorimetry
Interstitial collagenase = biological target: T1, Interstitial collagenase (Homo sapiens, UniProt P03956); assay: Inhibition of MMP1 catalytic domain using Mca-Pro-Leu-Gly-Leu-Dpa-Ala-Arg-NH2 as substrate preincubated for 1 hr prior substrate addition measured after 3 hrs by spectrofluorimetry
T1 sequence (P03956 whole entry): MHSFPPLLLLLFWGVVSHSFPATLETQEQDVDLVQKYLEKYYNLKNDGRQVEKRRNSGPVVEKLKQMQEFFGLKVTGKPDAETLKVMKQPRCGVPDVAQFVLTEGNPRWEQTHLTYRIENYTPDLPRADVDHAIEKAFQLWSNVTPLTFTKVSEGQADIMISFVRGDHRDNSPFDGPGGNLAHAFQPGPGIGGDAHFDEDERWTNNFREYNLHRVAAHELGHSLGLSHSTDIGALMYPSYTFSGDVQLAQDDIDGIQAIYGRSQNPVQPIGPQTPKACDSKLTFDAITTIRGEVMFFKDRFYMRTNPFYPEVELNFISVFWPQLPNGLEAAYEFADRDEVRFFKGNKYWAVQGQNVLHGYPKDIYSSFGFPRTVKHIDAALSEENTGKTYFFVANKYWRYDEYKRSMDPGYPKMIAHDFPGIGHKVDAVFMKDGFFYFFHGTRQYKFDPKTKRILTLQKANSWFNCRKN

Neutrophil collagenase = Neutrophil collagenase (Homo sapiens, UniProt P22894); assay: Inhibition of MMP8 catalytic domain using Mca-Pro-Leu-Gly-Leu-Dpa-Ala-Arg-NH2 as substrate preincubated for 1 hr prior substrate addition measured after 3 hrs by spectrofluorimetry
[3] = biological target: Macrophage metalloelastase (Homo sapiens, UniProt P39900); assay: Inhibition of MMP12 catalytic domain using Mca-Pro-Leu-Gly-Leu-Dpa-Ala-Arg-NH2 as substrate preincubated for 1 hr prior substrate addition measured after 3 hrs by spectrofluorimetry
[4] = biological target: Matrix metalloproteinase-14 (Homo sapiens, UniProt P50281); assay: Inhibition of MMP14 catalytic domain using Mca-Pro-Leu-Gly-Leu-Dpa-Ala-Arg-NH2 as substrate preincubated for 1 hr prior substrate addition measured after 3 hrs by spectrofluorimetry

Stromelysin-1, sequence (P08254 whole entry, the tested form may be a part): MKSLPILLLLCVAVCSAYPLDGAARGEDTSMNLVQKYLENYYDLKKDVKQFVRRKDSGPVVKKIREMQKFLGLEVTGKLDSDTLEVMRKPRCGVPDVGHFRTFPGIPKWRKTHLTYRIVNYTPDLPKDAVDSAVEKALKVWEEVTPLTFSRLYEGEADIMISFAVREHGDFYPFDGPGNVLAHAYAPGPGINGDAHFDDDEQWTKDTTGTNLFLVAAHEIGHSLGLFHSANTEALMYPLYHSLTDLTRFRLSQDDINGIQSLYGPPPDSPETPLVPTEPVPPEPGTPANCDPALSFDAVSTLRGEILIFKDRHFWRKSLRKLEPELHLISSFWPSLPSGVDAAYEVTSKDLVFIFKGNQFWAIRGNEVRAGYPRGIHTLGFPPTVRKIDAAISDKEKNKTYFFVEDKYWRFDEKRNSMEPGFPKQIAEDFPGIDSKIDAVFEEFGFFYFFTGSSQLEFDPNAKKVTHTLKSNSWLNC
Matrix metalloproteinase-9, sequence (P14780 whole entry, the tested form may be a part): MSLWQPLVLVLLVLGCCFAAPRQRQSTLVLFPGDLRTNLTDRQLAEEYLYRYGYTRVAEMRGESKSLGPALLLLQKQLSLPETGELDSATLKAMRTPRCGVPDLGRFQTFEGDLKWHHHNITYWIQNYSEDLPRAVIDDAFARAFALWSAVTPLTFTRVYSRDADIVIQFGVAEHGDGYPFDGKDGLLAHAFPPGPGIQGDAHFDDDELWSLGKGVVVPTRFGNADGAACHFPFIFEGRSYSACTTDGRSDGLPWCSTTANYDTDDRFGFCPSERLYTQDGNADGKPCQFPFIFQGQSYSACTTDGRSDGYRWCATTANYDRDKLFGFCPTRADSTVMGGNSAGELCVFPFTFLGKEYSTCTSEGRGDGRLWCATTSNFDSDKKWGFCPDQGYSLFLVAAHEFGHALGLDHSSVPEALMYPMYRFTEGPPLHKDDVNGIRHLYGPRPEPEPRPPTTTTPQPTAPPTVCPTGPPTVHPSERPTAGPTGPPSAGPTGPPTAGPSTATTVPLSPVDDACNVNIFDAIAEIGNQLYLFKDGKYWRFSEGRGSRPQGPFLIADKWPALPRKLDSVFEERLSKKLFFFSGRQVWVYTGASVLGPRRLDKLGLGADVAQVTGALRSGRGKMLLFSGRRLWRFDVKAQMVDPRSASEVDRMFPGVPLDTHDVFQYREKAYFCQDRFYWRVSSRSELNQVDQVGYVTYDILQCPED
Macrophage metalloelastase, sequence (P39900 whole entry, the tested form may be a part): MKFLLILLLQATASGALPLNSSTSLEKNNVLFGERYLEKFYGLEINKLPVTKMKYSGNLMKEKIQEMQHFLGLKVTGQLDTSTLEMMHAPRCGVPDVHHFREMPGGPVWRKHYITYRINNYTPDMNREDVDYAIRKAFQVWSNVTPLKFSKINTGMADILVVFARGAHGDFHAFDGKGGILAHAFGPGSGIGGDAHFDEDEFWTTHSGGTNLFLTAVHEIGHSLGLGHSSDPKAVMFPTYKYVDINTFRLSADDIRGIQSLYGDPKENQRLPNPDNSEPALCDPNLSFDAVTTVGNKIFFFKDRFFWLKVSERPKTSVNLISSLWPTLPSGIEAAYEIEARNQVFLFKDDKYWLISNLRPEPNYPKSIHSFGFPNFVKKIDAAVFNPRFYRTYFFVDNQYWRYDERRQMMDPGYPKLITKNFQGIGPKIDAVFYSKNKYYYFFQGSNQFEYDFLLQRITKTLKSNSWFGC
Neutrophil collagenase, sequence (P22894 whole entry, the tested form may be a part): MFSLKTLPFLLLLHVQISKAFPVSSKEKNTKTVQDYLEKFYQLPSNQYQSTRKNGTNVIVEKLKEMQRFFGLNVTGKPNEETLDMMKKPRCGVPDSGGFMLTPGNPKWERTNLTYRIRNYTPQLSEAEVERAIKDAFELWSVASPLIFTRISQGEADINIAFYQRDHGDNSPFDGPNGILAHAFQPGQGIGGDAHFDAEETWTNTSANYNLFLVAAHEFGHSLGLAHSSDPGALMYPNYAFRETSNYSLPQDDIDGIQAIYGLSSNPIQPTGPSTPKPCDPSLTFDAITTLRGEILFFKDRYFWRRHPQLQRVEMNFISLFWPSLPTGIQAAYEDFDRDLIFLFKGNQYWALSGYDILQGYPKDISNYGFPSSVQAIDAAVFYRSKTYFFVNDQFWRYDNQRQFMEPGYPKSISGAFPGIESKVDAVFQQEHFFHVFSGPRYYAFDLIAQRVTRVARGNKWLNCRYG
72 kDa type IV collagenase, sequence (P08253 whole entry, the tested form may be a part): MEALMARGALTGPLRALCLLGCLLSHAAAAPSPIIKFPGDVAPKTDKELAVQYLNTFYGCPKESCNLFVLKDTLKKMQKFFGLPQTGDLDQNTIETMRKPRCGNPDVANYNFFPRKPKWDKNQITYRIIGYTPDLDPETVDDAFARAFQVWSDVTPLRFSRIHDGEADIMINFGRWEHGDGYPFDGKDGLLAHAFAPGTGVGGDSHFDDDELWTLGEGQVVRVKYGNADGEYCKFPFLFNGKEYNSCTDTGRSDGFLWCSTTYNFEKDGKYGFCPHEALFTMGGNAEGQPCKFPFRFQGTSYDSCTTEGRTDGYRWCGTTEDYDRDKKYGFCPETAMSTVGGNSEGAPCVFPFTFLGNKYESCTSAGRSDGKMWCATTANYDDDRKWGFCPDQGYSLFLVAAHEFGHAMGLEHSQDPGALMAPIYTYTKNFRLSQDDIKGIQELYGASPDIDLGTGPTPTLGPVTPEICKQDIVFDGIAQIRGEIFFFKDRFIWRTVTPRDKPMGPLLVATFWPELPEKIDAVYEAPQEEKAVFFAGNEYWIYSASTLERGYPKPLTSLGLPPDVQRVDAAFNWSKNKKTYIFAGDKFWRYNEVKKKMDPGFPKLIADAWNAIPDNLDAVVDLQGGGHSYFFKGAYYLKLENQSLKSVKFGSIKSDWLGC

In the case of O=C(NO)[C@@H]1CSCN1S(=O)(=O)c1ccc2ccccc2c1, the IC50 [1] is reported as 31 µM and the IC50 [2] is reported as > 50 µM.
In the case of O=C(NO)[C@@H]1C[C@@H](O)CN1Cc1ccc(-c2ccccc2)cc1, the IC50 [1] is reported as > 500 µM.
O=C(O)[C@@H]1CCC(=O)N1Cc1ccc(Cl)cc1 gave an IC50 [1] of 383 µM.
For CCCCCc1ccc(C(=O)Nc2ccc(S(=O)(=O)N(CCN3CCOCC3)[C@@H](C(=O)NO)C(C)C)cc2)cc1, the IC50 [1] was < 0.0001 µM.
O=C(O)[C@@H]1CCC(=O)N1Cc1ccccc1Cl gave an IC50 [1] of 315 µM.
For O=C(NO)[C@@H]1CCC(=O)N1Cc1ccc(-c2ccccc2)cc1, the IC50 [1] was 9 µM and the IC50 [2] was 144 µM.
O=C(NO)[C@@H]1CSCN1Cc1ccc(-c2ccccc2)cc1 gave an IC50 [1] of 330 µM.
With O=C(NO)[C@@H]1CCC(=O)N1Cc1ccccc1Cl the IC50 [1] was > 500 µM.
O=C(NO)[C@@H]1CSCN1S(=O)(=O)c1ccc(Oc2ccc(Cl)cc2)cc1 showed an IC50 (Stromelysin-1) of 0.16 µM, an IC50 (Interstitial collagenase) of 1 µM and an IC50 [1] of 0.013 µM. It also gave an IC50 [2] of 0.016 µM.
In the case of O=C(NO)[C@H]1CCC(=O)N1Cc1ccc(-c2ccccc2)cc1, the IC50 [1] is reported as 3 µM and the IC50 [2] is reported as 30 µM.
Work on O=C(O)[C@@H]1CCC(=O)N1Cc1ccc(-c2ccccc2)cc1 yielded an IC50 [1] of 340 µM.
In the case of NC(=O)[C@H]1CCC(=O)N1Cc1ccc(Cl)cc1, the IC50 [1] is reported as > 500 µM.
In the case of O=C(NO)[C@@H]1CCC(=O)N1S(=O)(=O)c1ccc(-c2ccccc2)cc1, the IC50 [1] is reported as 1.7 µM and the IC50 [2] is reported as 1.9 µM.
O=C(NO)[C@@H]1CSCN1S(=O)(=O)c1ccc(Oc2ccc(F)cc2)cc1 was tested, and the IC50 (Stromelysin-1) was 0.7 µM, the IC50 (Interstitial collagenase) was > 50 µM and the IC50 [1] was 0.01 µM. The IC50 [2] was 0.005 µM.
O=C(NO)[C@@H]1CCCN1S(=O)(=O)c1ccc(-c2ccccc2)cc1 showed an IC50 [1] of 4 µM and an IC50 [2] of 76 µM.
Work on COc1ccc(Oc2ccc(S(=O)(=O)N3CSC[C@H]3C(=O)NO)cc2)cc1 yielded an IC50 [1] of 0.009 µM and an IC50 [2] of 0.002 µM.
In the case of NC(=O)[C@H]1CCC(=O)N1Cc1ccccc1Cl, the IC50 [1] is reported as > 500 µM.
NC(=O)[C@H]1CCC(=O)N1Cc1ccc(-c2ccccc2)cc1 was tested, and the IC50 [1] was > 500 µM.
O=C(O)[C@H]1CCC(=O)N1Cc1ccc(Cl)cc1 was tested, and the IC50 [1] was > 500 µM.
O=C(NO)[C@H]1CCC(=O)N1Cc1ccc(Cl)cc1 showed an IC50 [1] of 400 µM and an IC50 [2] of 430 µM.
With O=C(NO)[C@@H]1CSCN1S(=O)(=O)c1ccc(-c2ccccc2)cc1 the IC50 [1] was 0.2 µM and the IC50 [2] was 0.23 µM.
For O=C(NO)[C@@H]1CCCN1Cc1ccc(-c2ccccc2)cc1, the IC50 [1] was > 500 µM.
O=C(O)[C@H]1CCC(=O)N1Cc1ccccc1Cl was tested, and the IC50 [1] was > 500 µM.
In the case of O=C(NO)[C@@H]1CCC(=O)N1Cc1ccc(Cl)cc1, the IC50 [1] is reported as > 500 µM.
Compound O=C(NO)[C@@H]1CSC(=O)N1Cc1ccc(-c2ccccc2)cc1 has an IC50 [1] of 6.8 µM and an IC50 [2] of 47 µM.
O=C(NO)[C@H]1CCC(=O)N1Cc1ccccc1Cl was tested, and the IC50 [1] was > 500 µM and the IC50 [2] was > 500 µM.
With NC(=O)[C@@H]1CCC(=O)N1Cc1ccc(-c2ccccc2)cc1 the IC50 [1] was > 500 µM.
For O=C(NO)[C@@H]1CS(=O)(=O)CN1S(=O)(=O)c1ccc(Oc2ccc(Cl)cc2)cc1, the IC50 (Neutrophil collagenase) was 0.004 µM, the IC50 [3] was 0.019 µM and the IC50 [1] was 0.0008 µM. It also gave an IC50 [4] of 0.005 µM and an IC50 [2] of 0.0005 µM.
Work on O=C(NO)[C@@H]1CSCN1S(=O)(=O)c1cccc2cccnc12 yielded an IC50 [1] of 0.71 µM and an IC50 [2] of 0.56 µM.
For NC(=O)[C@@H]1CCC(=O)N1Cc1ccccc1Cl, the IC50 [1] was > 500 µM.
Work on O=C(O)[C@H]1CCC(=O)N1Cc1ccc(-c2ccccc2)cc1 yielded an IC50 [1] of 290 µM.
In the case of O=C(NO)[C@@H]1C[S+]([O-])CN1S(=O)(=O)c1ccc(-c2ccccc2)cc1 (some centres not stated), the IC50 (Stromelysin-1) is reported as 2 µM, the IC50 (Neutrophil collagenase) is reported as 0.4 µM and the IC50 [3] is reported as 2.5 µM. For the same compound, the IC50 (Interstitial collagenase) was 4 µM, the IC50 [1] was 0.009 µM and the IC50 [4] was 0.16 µM. The IC50 [2] was 0.6 µM.
In the case of NC(=O)[C@@H]1CCC(=O)N1Cc1ccc(Cl)cc1, the IC50 [1] is reported as > 500 µM.
O=C(NO)[C@@H]1CS(=O)(=O)CN1S(=O)(=O)c1ccc(-c2ccccc2)cc1 showed an IC50 (Stromelysin-1) of 4 µM, an IC50 (Neutrophil collagenase) of 0.1 µM and an IC50 [3] of 0.5 µM. The IC50 (Interstitial collagenase) was 2.5 µM, the IC50 [1] was 0.053 µM and the IC50 [4] was 3.8 µM. The IC50 [2] was 0.48 µM.
